According to patent publication US12655116B2, “Substituted isophthalic acid diamides” (Bayer Aktiengesellschaft, priority 2020, dated 2026):

What was measured:
DIGSA [1] = assay: Post-emergence herbicidal action against DIGSA; assay type: in vivo, Digitaria sanguinalis
In short: (§1)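 Weeds in sandy loam soil received a post-emergence spray at the one-leaf stage. Compounds were applied as WP or EC in water, 600 to 800 l/ha, with 0.2% wetting agent. Activity in % was judged visually after roughly 3 weeks against untreated plants.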

AVEFA [2] = assay: Post-emergence herbicidal action against AVEFA; assay type: in vivo, Avena fatua; conditions: Avena fatua, 504 h, visual assessment about 3 weeks after treatment, 100% = plants have died, 0% = like control plants
In short: as §1

ALOMY [3] = assay: Pre-emergence herbicidal action against ALOMY; assay type: in vivo, Alopecurus myosuroides; conditions: Alopecurus myosuroides, 504 h, pre-emergence
In short: (§2)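 Visual rating at 3 weeks vs untreated pots; 0–100% scale, 100% = plants died. Treatment: aqueous WP/EC spray onto covering soil, 600–800 l/ha, 0.2% wetter, seeds in sandy loam.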

AMARE [4] = assay: Post-emergence herbicidal action against AMARE; assay type: in vivo, Amaranthus retroflexus; conditions: 20 g/ha, visual assessment about 3 weeks after treatment, 100% = plants have died, 0% = like control plants
In short: as §1

MATIN [5] = assay: Pre-emergence herbicidal action against MATIN; assay type: in vivo, Matricaria inodora
In short: as §2

VIOTR [6] = assay: Pre-emergence herbicidal action against VIOTR; assay type: in vivo, Viola tricolor
In short: as §2

ECHCG [7] = assay: Post-emergence herbicidal action against ECHCG; assay type: in vivo, Echinochloa crus-galli
In short: as §1

DIGSA [8] = assay: Pre-emergence herbicidal action against DIGSA; assay type: in vivo, Digitaria sanguinalis
In short: as §2

POLCO = assay: Pre-emergence herbicidal action against POLCO; assay type: in vivo, Polygonum convolvulus; conditions: Fallopia convolvulus, 504 h, dosage 80 g/ha
In short: as §2

AVEFA [9] = assay: Pre-emergence herbicidal action against AVEFA; assay type: in vivo, Avena fatua; conditions: 80 g/ha, pre-emergence
In short: as §2

ABUTH [10] = assay: Pre-emergence herbicidal action against ABUTH; assay type: in vivo, Abutilon theophrasti
In short: as §2

AMARE [11] = assay: Pre-emergence herbicidal action against AMARE; assay type: in vivo, Amaranthus retroflexus
In short: as §2

PHBPU [12] = assay: Post-emergence herbicidal action against PHBPU; assay type: in vivo, Pharbitis purpurea
In short: as §1

MATIN [13] = assay: Post-emergence herbicidal action against MATIN; assay type: in vivo, Matricaria inodora; conditions: Tripleurospermum inodorum, 504 h, dosage 20 g/ha
In short: as §1

ABUTH [14] = assay: Post-emergence herbicidal action against ABUTH; assay type: in vivo, Abutilon theophrasti; conditions: visual assessment about 3 weeks after treatment vs untreated controls
In short: as §1

LOLRI = assay: Pre-emergence herbicidal action against LOLRI; assay type: in vivo, Lolium rigidum; conditions: Lolium rigidum, 504 h, 80 g/ha
In short: as §2

ECHCG [15] = assay: Pre-emergence herbicidal action against ECHCG; assay type: in vivo, Echinochloa crus-galli
In short: as §2

STEME [16] = assay: Pre-emergence herbicidal action against STEME; assay type: in vivo, Stellaria media
In short: as §2

HORMU [17] = assay: Pre-emergence herbicidal action against HORMU; assay type: in vivo, Hordeum murinum; conditions: Hordeum murinum, 504 h; 80 g/ha, pre-emergence
In short: as §2

SETVI [18] = assay: Post-emergence herbicidal action against SETVI; assay type: in vivo, Setaria viridis
In short: as §1

SETVI [19] = assay: Pre-emergence herbicidal action against SETVI; assay type: in vivo, Setaria viridis
In short: as §2

VERPE = assay: Post-emergence herbicidal action against VERPE; assay type: in vivo, Veronica persica; conditions: 20 g/ha
In short: as §1

VIOTR [20] = assay: Post-emergence herbicidal action against VIOTR; assay type: in vivo, Viola tricolor
In short: as §1

ALOMY [21] = assay: Post-emergence herbicidal action against ALOMY; assay type: in vivo, Alopecurus myosuroides; conditions: dosage 20 g/ha, visual assessment about 3 weeks after treatment vs untreated controls
In short: as §1

STEME [22] = assay: Post-emergence herbicidal action against STEME; assay type: in vivo, Stellaria media
In short: as §1

PHBPU [23] = assay: Pre-emergence herbicidal action against PHBPU; assay type: in vivo, Pharbitis purpurea; conditions: dosage 80 g/ha
In short: as §2

HORMU [24] = assay: Post-emergence herbicidal action against HORMU; assay type: in vivo, Hordeum murinum; conditions: dosage 20 g/ha
Description: Seeds of monocotyledonous and dicotyledonous weed and crop plants are laid out in sandy loam soil in wood-fiber pots, covered with soil and cultivated in a greenhouse under good growth conditions. 2 to 3 weeks after sowing, the test plants are treated at the one-leaf stage. The compounds of the invention, formulated in the form of wettable powders (WP) or as emulsion concentrates (EC), are then sprayed onto the green parts of the plants in the form of an aqueous suspension or emulsion at a water application rate equivalent to 600 to 800 l/ha, with addition of 0.2% wetting agent. After the test plants have been left to stand in the greenhouse under optimal growth conditions for about 3 weeks, the action of the preparations is assessed visually in comparison to untreated controls (herbicidal action in percent (%): 100% activity=the plants have died, 0% activity=like control plants). […] The tables below illustrate, in an illustrative manner, the post-emergence herbicidal action of the compounds of the invention, the herbicidal activity being stated in percent.

[25] = 80 g/ha, scored visually after 3 weeks vs untreated controls (100% = plants have died, 0% = like control plants)
[26] = Setaria viridis, 504 h, dosage 20 g/ha

CCNC(=O)c1c(C(F)(F)F)ccc(C(=O)Nc2nnnn2CC)c1Br [Example 2-208]
pest or weed control at 5 g/ha (DIGSA [1]; Digitaria sanguinalis, 504 h, 5 g/ha): 80%
pest or weed control at 20 g/ha (DIGSA [1]; Digitaria sanguinalis, 504 h, 20 g/ha): 90%
pest or weed control at 5 g/ha (AVEFA [2]; 5 g/ha): 80%
pest or weed control at 20 g/ha (AVEFA [2]; 20 g/ha): 90%
pest or weed control at 80 g/ha (ALOMY [3]; [25]): 90%
pest or weed control at 20 g/ha (ALOMY [3]; 20 g/ha, scored visually after 3 weeks, 100% = plants have died, 0% = like control plants): 80%
pest or weed control at 20 g/ha (AMARE [4]; Amaranthus retroflexus, 504 h): 100%
pest or weed control at 20 g/ha (MATIN [5]; Tripleurospermum inodorum, 504 h, dosage 20 g/ha): 100%
pest or weed control at 80 g/ha (MATIN [5]; Tripleurospermum inodorum, 504 h, dosage 80 g/ha): 100%
pest or weed control at 20 g/ha (VIOTR [6]; Viola tricolor, 504 h, dosage 20 g/ha): 100%
pest or weed control at 80 g/ha (VIOTR [6]; Viola tricolor, 504 h, dosage 80 g/ha): 100%
pest or weed control at 20 g/ha (ECHCG [7]; Echinochloa crus-galli, 504 h, dosage 20 g/ha): 80%
pest or weed control at 20 g/ha (DIGSA [8]; Digitaria sanguinalis, 504 h, dosage 20 g/ha): 90%
pest or weed control at 80 g/ha (DIGSA [8]; Digitaria sanguinalis, 504 h, dosage 80 g/ha): 100%
pest or weed control at 80 g/ha (POLCO): 90%
pest or weed control at 80 g/ha (AVEFA [9]; Avena fatua, 504 h): 100%
pest or weed control at 80 g/ha (ABUTH [10]; Abutilon theophrasti, 504 h, 80 g/ha, scored visually after 3 weeks vs untreated controls (100% = plants have died, 0% = like control plants)): 100%
pest or weed control at 20 g/ha (ABUTH [10]; Abutilon theophrasti, 504 h, dosage 20 g/ha, scored visually after 3 weeks vs untreated controls, 100% = plants have died, 0% = like control plants, read-out: Pre-emergence action against ABUTH (herbicidal activity in percent)): 100%
pest or weed control at 20 g/ha (AMARE [11]; Amaranthus retroflexus, 504 h, 20 g/ha, scored visually after 3 weeks vs untreated controls, 100% = plants have died, 0% = like control plants): 100%
pest or weed control at 80 g/ha (AMARE [11]; Amaranthus retroflexus, 504 h, 80 g/ha, scored visually after 3 weeks vs untreated controls, 100% = plants have died, 0% = like control plants): 100%
pest or weed control at 5 g/ha (PHBPU [12]; Ipomoea purpurea, 504 h, dosage 5 g/ha): 80%
pest or weed control at 20 g/ha (PHBPU [12]; Ipomoea purpurea, 504 h, dosage 20 g/ha): 80%
pest or weed control at 20 g/ha (MATIN [13]): 80%
pest or weed control at 5 g/ha (ABUTH [14]; Abutilon theophrasti, 504 h, dosage 5 g/ha): 90%
pest or weed control at 20 g/ha (ABUTH [14]; Abutilon theophrasti, 504 h, dosage 20 g/ha): 90%
pest or weed control at 80 g/ha (LOLRI): 80%
pest or weed control at 80 g/ha (ECHCG [15]; Echinochloa crus-galli, 504 h, 80 g/ha): 100%
pest or weed control at 20 g/ha (STEME [16]; Stellaria media, 504 h, dosage 20 g/ha): 100%
pest or weed control at 80 g/ha (STEME [16]; Stellaria media, 504 h, dosage 80 g/ha): 100%
pest or weed control at 80 g/ha (HORMU [17]): 90%
pest or weed control at 5 g/ha (SETVI [18]; Setaria viridis, 504 h, dosage 5 g/ha): 80%
pest or weed control at 20 g/ha (SETVI [18]; [26]): 80%
pest or weed control at 20 g/ha (SETVI [19]; [26]): 80%
pest or weed control at 80 g/ha (SETVI [19]; Setaria viridis, 504 h, dosage 80 g/ha): 100%
pest or weed control at 20 g/ha (VERPE; Veronica persica, 504 h): 80%
pest or weed control at 5 g/ha (VIOTR [20]; Viola tricolor, 504 h, 5 g/ha): 100%
pest or weed control at 20 g/ha (VIOTR [20]; Viola tricolor, 504 h, 20 g/ha): 100%
pest or weed control at 20 g/ha (ALOMY [21]; Alopecurus myosuroides, 504 h): 80%
pest or weed control at 20 g/ha (STEME [22]; Stellaria media, 504 h, 20 g/ha): 100%
pest or weed control at 5 g/ha (STEME [22]; Stellaria media, 504 h, dosage 5 g/ha): 80%

CCNC(=O)c1c(C(F)(F)F)ccc(C(=O)Nc2nnco2)c1SC [Example 5-59]
Post-emergence action against DIGSA in % (DIGSA [1]; 5 g/ha): 90%
Post-emergence action against DIGSA (DIGSA [1]; 20 g/ha): 90%
Pre-emergence action against PHBPU in % (PHBPU [23]): 80%
Post-emergence action at 20 g/ha against AMARE in % (AMARE [4]): 90%
Pre-emergence action against MATIN in % (MATIN [5]; dosage 20 g/ha): 80%
Pre-emergence action against MATIN in % (MATIN [5]; dosage 80 g/ha): 90%
Pre-emergence action against VIOTR in % (VIOTR [6]; dosage 20 g/ha): 100%
Pre-emergence action against VIOTR in % (VIOTR [6]; dosage 80 g/ha): 100%
Post-emergence action against ECHCG in % (ECHCG [7]; dosage 5 g/ha): 80%
Post-emergence action against ECHCG in % (ECHCG [7]; dosage 20 g/ha): 90%
Pre-emergence action against DIGSA in % (DIGSA [8]; dosage 20 g/ha): 100%
Pre-emergence action against DIGSA in % (DIGSA [8]; dosage 80 g/ha): 100%
Pre-emergence action against AVEFA in % (AVEFA [9]): 80%
Pre-emergence action against ABUTH (herbicidal activity) (ABUTH [10]; [25]): 100%
Pre-emergence action against ABUTH (herbicidal activity in percent) (ABUTH [10]; dosage 20 g/ha, scored visually after 3 weeks vs untreated controls, 100% = plants have died, 0% = like control plants): 100%
Pre-emergence action against AMARE in % (AMARE [11]; 20 g/ha, scored visually after 3 weeks vs untreated controls, 100% = plants have died, 0% = like control plants): 100%
Pre-emergence action against AMARE in % (AMARE [11]; [25]): 100%
Post-emergence action against PHBPU in % (PHBPU [12]; dosage 5 g/ha): 80%
Post-emergence action against PHBPU in % (PHBPU [12]; dosage 20 g/ha): 90%
Post-emergence action against ABUTH in % (ABUTH [14]; dosage 5 g/ha): 90%
Post-emergence action against ABUTH in % (ABUTH [14]; dosage 20 g/ha): 90%
Pre-emergence action against ECHCG in % (ECHCG [15]; 20 g/ha): 80%
Pre-emergence action against ECHCG in % (ECHCG [15]; 80 g/ha): 100%
Pre-emergence action against STEME in % (STEME [16]; dosage 20 g/ha): 90%
Pre-emergence action against STEME in % (STEME [16]; dosage 80 g/ha): 100%
Post-emergence action against SETVI in % (SETVI [18]; dosage 20 g/ha): 90%
Pre-emergence action against SETVI in % (SETVI [19]; dosage 80 g/ha): 100%
Post-emergence action against VERPE in % (VERPE): 80%
Post-emergence action against VIOTR in % (VIOTR [20]; 20 g/ha): 80%
Post-emergence action against ALOMY in % (ALOMY [21]): 80%
Post-emergence action against STEME in % (STEME [22]; 20 g/ha): 100%
Post-emergence action against STEME in % (STEME [22]; dosage 5 g/ha): 90%
Post-emergence action against HORMU in % (HORMU [24]): 80%
